According to the NIST ThermoML archive (doi:10.1021/je400783h):

How the values were obtained:
[1] = refractive index (Na D-line) (dimensionless); conditions: 101.33 kPa, Liquid, Standard Abbe refractometry
[2] = relative permittivity at various frequencies (dimensionless); conditions: 101 kPa, Liquid, Frequency=2 MHz, capacitive measurement method

Cc1ccc(C=O)o1 [5-methylfurfural]
Conditions | refractive index, [1] | relative permittivity, [2]
278.15 K | – | 45.2
280.65 K | – | 44.5
283.15 K | 1.5364 | 43.7
285.65 K | 1.53529 | 43
288.15 K | 1.53393 | 42.3
290.65 K | 1.53269 | 41.6
293.15 K | 1.53144 | 40.9
295.65 K | 1.53019 | 40.2
298.15 K | 1.5289 | 39.4
300.65 K | 1.52765 | 38.7
303.15 K | 1.5264 | 38
305.65 K | 1.52513 | 37.2
308.15 K | 1.52385 | 36.4
310.65 K | 1.52257 | 35.8
313.15 K | 1.5213 | 35.1
315.65 K | 1.52 | 34.4
318.15 K | 1.51872 | 33.7
320.65 K | 1.51742 | 33.6
323.15 K | 1.51615 | 32.4
325.65 K | 1.51486 | 31.7
328.15 K | 1.51357 | 31.1
330.65 K | 1.51229 | 30.4
333.15 K | 1.511 | 29.8
335.65 K | 1.50972 | 29.1
338.15 K | 1.50842 | 28.4

OCC1CCCO1 (stereo unspecified) [2-tetrahydrofurylmethanol]
Conditions | refractive index, [1] | relative permittivity, [2]
278.15 K | – | 15.2
280.65 K | – | 15
283.15 K | 1.45646 | 15
285.65 K | 1.45549 | 14.9
288.15 K | 1.45452 | 14.8
290.65 K | 1.45356 | 14.7
293.15 K | 1.45259 | 14.6
295.65 K | 1.45162 | 14.5
298.15 K | 1.45063 | 14.4
300.65 K | 1.44965 | 14.4
303.15 K | 1.44867 | 14.3
305.65 K | 1.44769 | 14.2
308.15 K | 1.44671 | 14.1
310.65 K | 1.44572 | 14
313.15 K | 1.44473 | 13.9
315.65 K | 1.44375 | 13.8
318.15 K | 1.44274 | 13.8
320.65 K | 1.44176 | 13.6
323.15 K | 1.44072 | 13.5
325.65 K | 1.4397 | 13.5
328.15 K | 1.43871 | 13.4
330.65 K | 1.43772 | 13.3
333.15 K | 1.43668 | 13.2
335.65 K | 1.43567 | 13.1
338.15 K | 1.43466 | 13
